Counter-ions that a name gives are not always drawn.
Legend:
[1] = tested on: visceromotor response (VMR) elicited by colorectal distension (CRD); assay: visceromotor response (VMR) elicited by colorectal distension (CRD) in conscious rats; type: in vivo, Sprague-Dawley rats; conditions: for VMR to noxious CRD: CRD 80 mmHg, naive rats; for effect on VMR to CRD: 1-100 nmol, hydrochloride
Description: Adult male Sprague-Dawley rats (250-350g, Harlan, San Diego, CA) served as animal subjects. Rats were housed 5-6 per cage, allowed free access to food and water, and were maintained on a 12 h light-dark cycle (lights on between 06.00 and 18.00 h).
Rats were deeply anesthetized with pentobarbital sodium (45 mg/kg, Nembutal, Abbott Labs, North Chicago, IL) administered intraperitoneally. […] The electrode leads were tunneled subcutaneously and exteriorized at the nape of the neck for future access. Some animals were also implanted with venous catheters in the femoral vein to enable i.v. administration of drugs. For intrathecal (i.t.) drug administration, an i.t. catheter (PE-10 tubing, 8.5 cm long) was inserted through the dura overlying the atlanto-occipital junction and threaded to the level of the lumbar enlargement (Yaksh and Rudy, 1976). The venous or i.t. catheter was surgically anchored to musculature at the back of the neck, and externalized with the electrode leads. The wounds were closed in layers with 4-0 silk. Rats were housed singly and allowed to recuperate for at least 3-5 days prior to testing.
The stimulus employed has been previously described (Gebhart and Sengupta, 1996). Briefly, the descending colon and rectum were distended by pressure-controlled air inflation of a 6 cm long flexible latex balloon tied around a flexible tube (Tygon). The balloon was lubricated (Surgilube, E. Fougera and Co., Melville, NY), inserted intra-anally and anchored by taping the balloon catheter to the base of the tail. […] The behavioral response quantified was the visceromotor response, a contraction of the abdominal and hindlimb (Ness and Gebhart, 1988). EMG activity in the external oblique musculature was quantified by computing the average amplitude (Dr. Alfred Bayati Astra Hässle). Each distension trial lasted 60 s and EMG activity was quantified 20 s before distension (baseline), during distension, and 20 s after distension. The increase in EMG amplitude during distension over baseline was recorded as the response.
On the day of testing, animals were briefly anesthetized with Metophane®, and the balloon was inserted and secured in place as described above. Rats were allowed to recover for 30-40 min, following which two stable control responses to CRD (80 mmHg, 20 s, 4 min interstimulus interval) were obtained.
Drugs were administered i.v. into the femoral vein through the indwelling catheter. All doses were administered in a volume of up to 230 µl followed by a flush with 100 µl of preservative-free saline over a period of 30s. Dose response curves were generated using a cumulative dosing paradigm. The first i.v. injection was made 2 min after the second control response. Subsequent doses were injected 8 min apart, thus allowing two distensions after each dose. Data are reported as the average response to the two distensions.
In one group of animals, memantine was administered to the lumbar enlargement through the indwelling i.t. catheter with the aid of a […] injection needle connected to a 25 ul Hamilton syringe by a length of polyethylene tubing (PE-10). All doses were administered in a volume of 5 µl followed by a flush with 10 µl of preservative-free saline over a period of 1 min. The progress of the injection was continuously monitored by following the movement of an air bubble in the tubing. The dose response curve was generated using a cumulative dosing paradigm. The first i.t. injection was made 2 min after the second control response. Subsequent doses were injected 8 min apart, thus allowing two distensions after each dose. Data are reported as the average response to the two distensions. […]

[2] = tested on: pelvic afferent nerve activity; assay: pelvic afferent nerve activity elicited by colorectal distension in anesthetized rats; type: in vivo, Sprague-Dawley rats; conditions: intra-arterial, cumulative 1, 3, 6 and 10 mg/kg; CRD 80 mm Hg
Description: General procedures: Male Sprague-Dawley rats 425-450 g) were anesthetized initially with sodium pentobarbital (40-45 mg/kg ip) and maintained with α-chloralose (60 mg kg^-1 h^-1). The trachea was cannulated for mechanical ventilation with room air. The left common carotid artery was cannulated for recording blood pressure. The femoral artery and vein were catheterized for injection of drug and anesthetic, respectively. Rats were paralyzed with pancuronium bromide (0.3 mg/kg i.v.) and ventilated with room air (55-60 strokes/min and 3-4 ml stroke volume). Supplemental doses of pancuronium bromide (0.2-0.3 mg kg^-1 h^-1) were given to maintain paralysis during the course of experiment. The mean arterial blood pressure was monitored continuously and maintained at >80 mm Hg with supplemental intravenous injection of 5% dextrose in saline given in a bolus of 1 to 1.5 ml as required. […]
Recordings of afferent nerve action potentials: The S1 dorsal root was identified and decentralized at its entry to the spinal cord. […] Electrical activity of single units was recorded monopolarly by placing a teased fiber over one arm of a bipolar silver-silver chloride electrode; a fine strand of connective tissue was placed across the other pole of the electrode. […]

[3] = i.v., 1-10 mg/kg, conscious rats (figure legends)
[4] = intrathecal (i.t.), up to a dose of 300nmol, conscious rats
[5] = i.v., most effective dose tested 60 mg/kg

With `Cl.NC(Cn1cccn1)c1ccccc1` (stereo not drawn) [Compound 4, alpha-phenyl-1H-pyrazole-1-ethanamine hydrochloride] the “effect on viscero-motor responses (VMR) to noxious colorectal distension” value (from here on “effect on viscero-motor responses (VMR)”) [1, 3] was “dose-dependently (1-10 mg/kg) attenuated VMR”, the “VMR to noxious CRD” value ([1]; i.v., most effective dose tested 100 mg/kg) was 10 % of control and the “effect on viscero-motor responses (VMR)” value [1, 4] was “None of the three compounds attenuated VMR”.
In the case of `N=C(N)c1cccc(CC(N)c2ccccc2)n1` (stereo not shown) [Compound 1, 2-amidino-6-(2-amino-2-phenyl)-ethylpyridine trihydrochloride], the “effect on viscero-motor responses (VMR)” value [1, 3] was “dose-dependently (1-10 mg/kg) attenuated VMR”, the “VMR to noxious CRD” value ([1]; i.v., most effective dose tested (dose not given)) was 13 % of control and the “effect on viscero-motor responses (VMR)” value [1, 4] was “None of the three compounds attenuated VMR”.
`CC12CC3CC(C)(C1)CC(N)(C3)C2` [memantine, memantine hydrochloride, reference compound] was tested, and the “effect on viscero-motor responses (VMR)” value [1, 3] was “dose-dependantly attenuate VMR”, the “VMR to noxious CRD” value ([1]; i.v., most effective dose tested 10 mg/kg) was 28 % of control and the “effect on VMR to CRD” value ([1]; intrathecal (i.t.), conscious rats) was “without effect”. For the same compound, the “effect on VMR to CRD” value ([1]; intrathecal (i.t.), conscious rats, listed as Memantine) was “did not attenuate VMR” and the “pelvic nerve activity elicited by distention of the colon” value [2] was “reduced, in a dose-dependent fashion”.
With `CCNC(Cc1cnccn1)c1ccccc1` (single isomer, unassigned; (+)) [Compound 3, (+) N-ethyl-1-phenyl-2-(3-pyrazine)ethanamine hydrochloride] the “effect on viscero-motor responses (VMR)” value [1, 3] was “dose-dependently (1-10 mg/kg) attenuated VMR” and the “VMR to noxious CRD” value [1, 5] was 5 % of control.
In the case of `Cl.NCC(=O)NC(Cc1ccccc1)c1ccccc1` (stereo not shown) [Compound 2, 2-amino-N-(1,2-diphenylethyl)acetamide hydrochloride], the “effect on viscero-motor responses (VMR)” value [1, 3] was “dose-dependently (1-10 mg/kg) attenuated VMR”, the “VMR to noxious CRD” value [1, 5] was 40 % of control and the “effect on viscero-motor responses (VMR)” value [1, 4] was “None of the three compounds attenuated VMR”.
